{
  "source": "paper PMC7596534",
  "about": "“Bacterial inducible expression of plant cell wall-binding protein YesO through conflict between Glycine max and saprophytic Bacillus subtilis” (Scientific Reports, 2020)",
  "target": "T1, YesO (Bacillus subtilis, UniProt O31518)",
  "T1 construct": "primer-encoded N-terminus MTLRIAWWG, native stop codon, no tag apparent",
  "T1 sequence (O31518 34-427)": "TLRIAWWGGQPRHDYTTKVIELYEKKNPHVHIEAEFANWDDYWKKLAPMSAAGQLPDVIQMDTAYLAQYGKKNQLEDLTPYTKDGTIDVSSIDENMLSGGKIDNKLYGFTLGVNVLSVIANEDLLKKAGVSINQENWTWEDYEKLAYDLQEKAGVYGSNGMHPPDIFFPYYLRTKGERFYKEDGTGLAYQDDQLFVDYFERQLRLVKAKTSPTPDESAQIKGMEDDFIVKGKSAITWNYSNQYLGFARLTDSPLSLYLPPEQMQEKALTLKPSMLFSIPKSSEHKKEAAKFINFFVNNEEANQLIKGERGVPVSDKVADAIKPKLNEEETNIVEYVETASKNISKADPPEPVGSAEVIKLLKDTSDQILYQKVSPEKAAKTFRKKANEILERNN",
  "test": "X-ray crystallography of the complex, […] Å",
  "assay_type": "binding",
  "conditions": "crystallised with 1 mM oligo-RG-I (mostly disaccharide, trisaccharide seen in density); Tris-HCl pH 8.5, 20 C; cleft between N- and C-domains",
  "data": [
    {"smiles": "C[C@@H]1OC(O)[C@H](O[C@H]2OC(C(=O)O)=C[C@H](O)[C@H]2O)[C@H](O)[C@H]1O[C@@H]1O[C@H](CO)[C@H](O)[C@H](O)[C@H]1O", "note": "(stereo partly shown) [ΔGalUA-Rha-Gal]", "values": [
      {"measurement": "X-ray crystallography of the complex, 1.58 Å", "value": "X-ray crystallography of YesO/oligo-RG-I indicated an interaction between YesO and the trisaccharide, ΔGalUA-Rha-Gal"}
    ]}
  ]
}
